Read-outs that look alike come from different tables or passages of the source.
What was measured:
Assay type in all cases: binding
[1] = target: T1, HeLa cell extract proteins (Homo sapiens, UniProt P48163)
T1 construct: endogenous in cells; host or cells: HeLa cell extract
T1 sequence (P48163 1-572): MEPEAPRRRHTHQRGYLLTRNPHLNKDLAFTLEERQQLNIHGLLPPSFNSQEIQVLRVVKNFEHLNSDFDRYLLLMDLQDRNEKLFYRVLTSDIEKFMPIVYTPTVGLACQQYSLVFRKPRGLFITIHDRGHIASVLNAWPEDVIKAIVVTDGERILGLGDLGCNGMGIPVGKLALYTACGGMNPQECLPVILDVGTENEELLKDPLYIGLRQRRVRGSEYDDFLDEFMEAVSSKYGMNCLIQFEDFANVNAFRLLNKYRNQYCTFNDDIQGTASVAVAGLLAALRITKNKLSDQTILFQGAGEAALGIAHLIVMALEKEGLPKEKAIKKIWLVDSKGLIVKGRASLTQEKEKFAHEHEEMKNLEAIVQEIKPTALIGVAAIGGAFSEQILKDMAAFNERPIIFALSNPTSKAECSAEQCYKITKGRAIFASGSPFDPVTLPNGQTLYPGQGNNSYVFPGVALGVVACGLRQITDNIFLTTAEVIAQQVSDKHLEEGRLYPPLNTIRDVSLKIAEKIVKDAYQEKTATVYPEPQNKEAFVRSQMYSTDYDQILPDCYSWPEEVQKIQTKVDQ

[2] = target: T2, HeLa cell extract proteins (Homo sapiens, UniProt P10619)
T2 construct: endogenous in cells; host or cells: HeLa cell extract
T2 sequence (P10619 29-480): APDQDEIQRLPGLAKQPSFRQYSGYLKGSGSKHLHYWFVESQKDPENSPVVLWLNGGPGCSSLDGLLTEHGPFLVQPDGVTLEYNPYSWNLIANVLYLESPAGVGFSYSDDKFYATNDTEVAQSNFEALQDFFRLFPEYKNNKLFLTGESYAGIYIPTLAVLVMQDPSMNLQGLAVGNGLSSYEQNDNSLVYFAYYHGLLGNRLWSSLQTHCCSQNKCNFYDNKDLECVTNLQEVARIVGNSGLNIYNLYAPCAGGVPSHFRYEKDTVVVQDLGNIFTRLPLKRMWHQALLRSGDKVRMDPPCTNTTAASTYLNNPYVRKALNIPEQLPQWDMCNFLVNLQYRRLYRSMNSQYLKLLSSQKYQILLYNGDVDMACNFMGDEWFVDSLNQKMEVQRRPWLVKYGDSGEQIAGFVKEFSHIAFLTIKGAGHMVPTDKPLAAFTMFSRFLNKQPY

[3] = target: T3, HeLa cell extract proteins (Homo sapiens, UniProt Q16795); conditions: captured protein NDUFA9; HeLa
T3 construct: endogenous in cells; host or cells: HeLa cell extract

[4] = target: T4, HeLa cell extract proteins (Homo sapiens, UniProt P00390); conditions: protein GSR; HeLa
T4 construct: endogenous in cells; host or cells: HeLa cell extract
T4 sequence (P00390 44-522): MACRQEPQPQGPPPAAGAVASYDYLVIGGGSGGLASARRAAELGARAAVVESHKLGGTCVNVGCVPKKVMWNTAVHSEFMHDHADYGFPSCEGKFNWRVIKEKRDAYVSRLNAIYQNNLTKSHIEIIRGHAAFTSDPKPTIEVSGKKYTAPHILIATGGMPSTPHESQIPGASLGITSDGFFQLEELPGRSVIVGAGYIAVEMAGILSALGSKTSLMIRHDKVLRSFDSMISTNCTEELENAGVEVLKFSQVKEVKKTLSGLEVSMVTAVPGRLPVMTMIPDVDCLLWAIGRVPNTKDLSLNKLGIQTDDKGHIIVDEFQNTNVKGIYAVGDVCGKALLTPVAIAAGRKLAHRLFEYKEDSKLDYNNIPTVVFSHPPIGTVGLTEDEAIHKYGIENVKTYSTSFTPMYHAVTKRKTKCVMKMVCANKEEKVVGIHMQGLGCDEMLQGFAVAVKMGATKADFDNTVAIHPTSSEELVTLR

[5] = target: T5, HeLa cell extract proteins (Homo sapiens, UniProt Q9BUF5); conditions: HeLa; protein TUBB6
T5 construct: endogenous in cells; host or cells: HeLa cell extract

[6] = target: T6, HeLa cell extract proteins (Homo sapiens, UniProt P41250); conditions: protein GARS; HeLa
T6 construct: endogenous in cells; host or cells: HeLa cell extract
T6 sequence (P41250 37-739): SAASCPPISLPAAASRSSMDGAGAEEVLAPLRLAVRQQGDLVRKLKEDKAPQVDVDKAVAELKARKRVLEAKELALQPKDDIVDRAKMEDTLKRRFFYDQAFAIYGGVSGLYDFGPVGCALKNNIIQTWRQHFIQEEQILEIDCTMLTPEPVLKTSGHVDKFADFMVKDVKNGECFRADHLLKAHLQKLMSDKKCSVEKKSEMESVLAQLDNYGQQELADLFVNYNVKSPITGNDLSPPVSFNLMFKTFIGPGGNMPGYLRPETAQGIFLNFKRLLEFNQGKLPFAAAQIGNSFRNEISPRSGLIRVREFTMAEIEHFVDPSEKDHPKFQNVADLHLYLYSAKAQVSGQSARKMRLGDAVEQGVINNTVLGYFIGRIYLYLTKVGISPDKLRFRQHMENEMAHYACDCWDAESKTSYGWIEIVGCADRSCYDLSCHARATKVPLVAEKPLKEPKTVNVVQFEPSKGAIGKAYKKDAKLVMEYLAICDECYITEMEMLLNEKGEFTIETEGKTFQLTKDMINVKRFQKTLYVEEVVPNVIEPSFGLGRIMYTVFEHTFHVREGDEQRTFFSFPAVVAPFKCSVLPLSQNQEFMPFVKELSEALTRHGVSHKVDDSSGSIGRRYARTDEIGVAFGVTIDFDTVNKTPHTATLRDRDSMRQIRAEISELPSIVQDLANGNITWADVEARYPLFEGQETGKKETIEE

[7] = target: T7, HeLa cell extract proteins (Homo sapiens, UniProt Q9NX61); conditions: captured protein TMEM161A; HeLa
T7 construct: endogenous in cells; host or cells: HeLa cell extract
T7 sequence (Q9NX61 29-479): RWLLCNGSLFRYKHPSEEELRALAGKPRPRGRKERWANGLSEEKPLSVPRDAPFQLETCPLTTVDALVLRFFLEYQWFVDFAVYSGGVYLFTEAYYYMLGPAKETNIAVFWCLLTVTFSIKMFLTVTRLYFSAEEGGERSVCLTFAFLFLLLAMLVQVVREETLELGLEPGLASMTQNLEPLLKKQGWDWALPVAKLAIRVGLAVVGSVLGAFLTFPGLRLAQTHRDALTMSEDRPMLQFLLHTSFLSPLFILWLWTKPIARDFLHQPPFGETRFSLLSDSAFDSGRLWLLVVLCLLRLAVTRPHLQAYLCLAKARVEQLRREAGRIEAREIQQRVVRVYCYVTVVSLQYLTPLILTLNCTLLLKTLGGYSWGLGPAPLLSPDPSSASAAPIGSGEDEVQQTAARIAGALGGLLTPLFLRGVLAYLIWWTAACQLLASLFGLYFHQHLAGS

T5 sequence (Q9BUF5 whole entry): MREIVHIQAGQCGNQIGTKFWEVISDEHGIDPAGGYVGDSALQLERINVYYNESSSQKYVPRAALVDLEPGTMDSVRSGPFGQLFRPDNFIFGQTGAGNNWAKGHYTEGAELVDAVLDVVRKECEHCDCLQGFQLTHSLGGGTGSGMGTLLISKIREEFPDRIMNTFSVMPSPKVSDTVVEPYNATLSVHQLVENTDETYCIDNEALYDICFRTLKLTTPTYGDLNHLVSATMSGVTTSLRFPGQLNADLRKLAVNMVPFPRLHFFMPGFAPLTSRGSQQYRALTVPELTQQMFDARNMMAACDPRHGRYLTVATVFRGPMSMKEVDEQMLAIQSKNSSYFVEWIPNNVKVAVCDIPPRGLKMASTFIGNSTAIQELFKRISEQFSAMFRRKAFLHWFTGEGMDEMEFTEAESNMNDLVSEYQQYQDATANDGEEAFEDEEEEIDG
T3 sequence (Q16795 36-377): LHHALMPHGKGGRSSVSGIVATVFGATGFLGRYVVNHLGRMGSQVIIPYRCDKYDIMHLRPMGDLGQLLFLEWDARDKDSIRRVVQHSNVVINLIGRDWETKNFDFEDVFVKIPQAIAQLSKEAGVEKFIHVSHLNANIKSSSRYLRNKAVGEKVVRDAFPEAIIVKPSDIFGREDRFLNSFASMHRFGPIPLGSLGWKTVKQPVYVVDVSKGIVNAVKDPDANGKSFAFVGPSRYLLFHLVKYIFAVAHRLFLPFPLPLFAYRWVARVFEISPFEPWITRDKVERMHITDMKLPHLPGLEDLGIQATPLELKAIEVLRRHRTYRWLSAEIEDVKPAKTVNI

Row | Structure (SMILES) | fold changes relative to vehicle control ([1]; protein ME1, HeLa) | fold changes relative to vehicle control ([2]; HeLa, protein CTSA) | fold changes relative to vehicle control [1] | fold changes relative to vehicle control [2] | fold changes relative to vehicle control [3] | fold changes relative to vehicle control [4] | fold changes relative to vehicle control [5] | fold changes relative to vehicle control [6] | fold changes relative to vehicle control [7]
1 | Nc1nc2c(c(=O)[nH]1)N(C=O)C(CNc1ccc(C(=O)N[C@@H](CCC(=O)O)C(=O)O)cc1)CN2 (some centres unmarked) [LEU, leucovorin] | 0.79 | 1.01 | – | – | – | – | – | – | –
2 | Nc1nc2[nH]cc(CCc3ccc(C(=O)N[C@@H](CCC(=O)O)C(=O)O)cc3)c2c(=O)[nH]1 [PTX, pemetrexed] | – | – | 0.84 | 0.77 | – | – | – | – | –
3 | CCCCCCOc1ccc(Cc2cnc(N)nc2N)cc1 [compound 1] | – | – | – | – | 1.01 | 0.94 | 0.7 | 1.14 | 0.76
4 | CCCCCCOc1cccc(Cc2cnc(N)nc2N)c1 [compound 2] | – | – | – | – | 0.87 | 1.15 | 0.91 | 1.74 | 1.02
5 | Nc1nc2cccc(-c3ccccc3)c2n1Cc1ccc(Cl)c(Cl)c1 [compound 3] | – | – | – | – | 1.04 | 1 | 1.19 | 0.93 | 0.94
6 | NCCOCCOCC(=O)Nc1nc2ncc(CNc3ccc(C(=O)NC(CCC(=O)O)C(=O)O)cc3)nc2c(=O)[nH]1 (centres unmarked) [compound 6] | 1.02 | 0.87 | – | – | – | – | – | – | –
7 | NCCCNc1ccc(C(=O)NC(CCC(=O)O)C(=O)O)cc1 (centres unmarked) [compound 7] | 0.86 | 1.13 | – | – | – | – | – | – | –

Reference: PMC6199744, “Development of Chemical Proteomics for the Folateome and Analysis of the Kinetoplastid Folateome” (ACS Infectious Diseases, 2018)
